In publication PMC4830886, “Extended evaluation on the ES-D3 cell differentiation assay combined with the BeWo transport model, to predict relative developmental toxicity of triazole compounds” (Archives of Toxicology, 2015):

Legend:
[1] = in vitro BeWo transport model (placental transfer); details: human
Protocol: (§1) To study placental transfer of test compounds, BeWo transport experiments were performed as described previously (Li et al. [2013]). Briefly, BeWo b30 cells (passages 27–45) were cultured in DMEM (Zwijndrecht, The Netherlands), supplemented with 10 % (v/v) heat-inactivated FCS (HyClone-Perbio, Etten-Leur, The Netherlands), 10,000 U/ml penicillin, 10 mg/ml streptomycin and 2 mM L-glutamine. The cells were seeded at a density of 1 × 10^5 cells/cm^2 on transwell® polycarbonate membranes (12 mm diameter, 0.4 μm pore size) (VWR International BV, Amsterdam, The Netherlands) coated with human placental collagen. The medium (0.5-ml apical compartment, 1.5-ml basolateral compartment) was replaced daily. At day 6 postseeding, the BeWo b30 cell layers were used for transport experiments. The barrier-forming capacity of the BeWo cell layers was evaluated by measuring the transepithelial electrical resistance (TEER) of the cell monolayer using a Millicell ERS-2 Volt-Ohm Meter (Millipore, USA) at day 6 postseeding as described previously (Li et al. [2013]). Only the cell layers showing TEER values between 80 and 100 Ω cm^2 were used for transport experiments.
(§2) Transport experiments were initiated by adding 0.5 ml of transport buffer Hank’s balanced salt solution (HBSS, Invitrogen, Breda, The Netherlands) containing the test compound, being 0594, 0595, 0596, 0599, 0600 and 0618, dissolved in DMSO (final solvent concentration 0.5 % DMSO), at concentration of 50 μM, to the apical compartment and 1.5 ml transport buffer to the basolateral compartment. Subsequently, the plate was incubated in a humidified atmosphere with 5 % CO2 at 37 °C. After 15, 30, 60 and 90 min, a sample of 0.2 ml was taken from the basolateral compartment and replaced by an equal volume of transport buffer. At the end of each experiment, a 0.2-ml sample was also taken from the apical compartment. Subsequently, the filters with the BeWo b30 cell layers were washed three times with PBS, cut out of the insert, dissolved in 0.25 ml 65 % (v/v) methanol and sonificated for 15 min in a Bandelin Sonorex RK100 (Berlin, Germany) in order to determine the amount of compound accumulated in the cells. After each experiment, mass balance calculations were performed. In each transport study, amoxicillin and antipyrine were included as control and reference compounds. Amoxicillin transport was included to assess for monolayer integrity since it is a compound known to be transported only to a limited extent across the placenta, whereas antipyrine was included as a control for optimal transport and a reference compound to enable calculation of relative transport rates (Li et al. [2013]). The transport of the six test compounds, as well as the reference compounds amoxicillin and antipyrine, through the permeable membrane of the transwell filter in the absence of BeWo cells was determined as well. […] For each test compound, three independent experiments were performed, with three technical replicates per experiment.
(§3) Samples were analyzed using high-performance liquid chromatography (HPLC) to quantify the amount of test compound in order to determine the transport rate and to perform mass balance calculations. The HPLC system used consisted of a Waters (Milford, MA) 600 controller and a 600 pump, equipped with a photodiode array detector set to record absorption of wavelengths between 200 and 400 nm. A Waters 717 plus autosampler was used for sample injection. The temperature of the autosampler was kept at 7 °C.
(§4) For analysis of all compounds, 50 μl sample was injected to a C18 5 μm reverse-phase column (150 mm × 4.6 mm I.D.) with a guard column (7.5 mm × 4.6 mm I.D.) (Alltech, Bergen op Zoom, The Netherlands). The mobile phase used for analysis of all the test compounds consisted of (A) 0.1 % trifluoroacetic acid in nanopure water and (B) HPLC-grade acetonitrile. Elution was at a flow rate of 0.8 ml/min, starting at 22 % B with a linear increase to 100 % B in 8 min.

BeWo b30 cell layers = test: in vitro BeWo transport model (placental transfer); details: BeWo cells, 50 μM (25 nmol) apical, at 90 min
Protocol: as §1, §2, §3, §4

SMILES: CC(c1nc(-c2ccc(C#N)cc2)cs1)C(O)(Cn1cncn1)c1ccc(F)cc1 (stereo not shown) [compound 0596, 4-{2-[2-(4-Fluoro-phenyl)-2-hydroxy-1-methyl-3-[1,2,4]triazol-1-yl-propyl]-thiazol-4-yl}-benzonitrile]
- Papp at 30 min, 50 μM [1]: 24.4 ± 2.7 ×10⁻⁶ cm/s
- Intracellular accumulation (% of added amount) (BeWo b30 cell layers): 12 % of added amount

SMILES: CC1CC(C)OC(Cn2cncn2)(c2ccc(Oc3ccc(Cl)cc3)cc2Cl)O1 (stereo not shown) [compound 0600, 1-[[2-[2-Chloro-4-(4-chlorophenoxy)phenyl]-4,6-dimethyl-1,3-dioxan-2-yl]methyl]-1,2,4-triazole]
- Papp at 30 min, 50 μM [1]: 7.9 ± 1 ×10⁻⁶ cm/s
- Intracellular accumulation (% of added amount) (BeWo b30 cell layers): 66 % of added amount

SMILES: OC(c1cccnc1)c1c(-c2ccc(F)cc2F)csc1-c1ccc(F)cc1F (stereo not shown) [compound 0595, [2,4-Bis-(2,4-difluoro-phenyl)-thiophen-3-yl]-pyridin-3-yl-methanol]
- Papp at 30 min, 50 μM [1]: 3 ± 0.4 ×10⁻⁶ cm/s
- Intracellular accumulation (% of added amount) (BeWo b30 cell layers): 79 % of added amount

SMILES: OC(c1cccnc1)c1c(-c2ccc(F)cc2F)noc1-c1ccc(Cl)cc1F (stereo not shown) [compound 0594, [5-(4-Chloro-2-fluoro-phenyl)-3-(2,4-difluoro-phenyl)-isoxazol-4-yl]-pyridin-3-yl-methanol]
- Papp at 30 min, 50 μM [1]: 11.5 ± 2.6 ×10⁻⁶ cm/s
- Intracellular accumulation (% of added amount) (BeWo b30 cell layers): 24 % of added amount

SMILES: CC(c1nc(-c2ccc(C#N)cc2)cs1)C(O)(Cn1ccnc1)c1ccc(F)cc1 (stereo not shown) [compound 0599, 4-[2-[2-(4-Fluorophenyl)-2-hydroxy-3-imidazol-1-yl-1-methyl-propyl]thiazol-4-yl]benzonitrile]
- Papp at 30 min, 50 μM [1]: 18.4 ± 1.1 ×10⁻⁶ cm/s
- Intracellular accumulation (% of added amount) (BeWo b30 cell layers): 22 % of added amount
